Test results reported in US8664257B2, “Oxygen-substituted 3-heteroaroylamino-propionic acid derivatives and their use as pharmaceuticals” (Sanofi, priority 2010, dated 2014).
Read-outs that look alike come from different tables or passages of the source. Blank lines part the entries; values can stand above or below the compound they belong to.

Biological target: T1, Recombinant human cathepsin A (Homo sapiens, UniProt P10619)
T1 construct: Recombinant human cathepsin A (residues 29-480, with a C-terminal 10-His tag); 10-His (C); purchased R&D Systems 1049-SE
T1 sequence (P10619 29-312 limits assumed): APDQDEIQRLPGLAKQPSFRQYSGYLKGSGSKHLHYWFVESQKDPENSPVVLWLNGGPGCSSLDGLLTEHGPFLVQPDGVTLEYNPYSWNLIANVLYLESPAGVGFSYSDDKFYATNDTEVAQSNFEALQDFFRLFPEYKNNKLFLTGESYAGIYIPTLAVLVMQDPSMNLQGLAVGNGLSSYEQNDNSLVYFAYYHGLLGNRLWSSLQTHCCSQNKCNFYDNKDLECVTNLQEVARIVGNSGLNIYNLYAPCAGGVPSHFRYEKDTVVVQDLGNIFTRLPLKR
T1 sequence (P10619 327-480 limits assumed): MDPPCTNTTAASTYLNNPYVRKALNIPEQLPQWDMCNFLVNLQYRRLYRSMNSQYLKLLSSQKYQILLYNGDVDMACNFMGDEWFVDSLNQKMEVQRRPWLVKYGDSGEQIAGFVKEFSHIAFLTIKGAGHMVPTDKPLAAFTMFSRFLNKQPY
Test: Cathepsin A inhibitory activity
Format: biochemical
Outline: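 Human cathepsin A (res. 29-480, C-His10) pre-activated with cathepsin L (MES pH 6.0, DTT, 15 min, 37 °C; quenched with 10 μM E-64). Enzyme (833 ng/ml) preincubated 15 min RT with compound in MES pH 5.5/DTT, then 2 μM Bodipy FL-bradykinin for 15 min RT. Capillary electrophoresis product/substrate peak areas; IC50 from % inhibition.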

[1] = read-out: Activity (2): Cathepsin A inhibitory activity (IC50 class)
[2] = pharmacological test "Cathepsin A inhibitory activity", IC50 given as class A/B/C, read-out: Activity (2): Cathepsin A inhibitory activity, IC50 class
[3] = read-out: Activity (2): Cathepsin A inhibitory activity, IC50 class
[4] = recombinant human cathepsin A, read-out: Activity (2): Cathepsin A inhibitory activity, IC50 class
[5] = recombinant human cathepsin A 833 ng/ml, Bodipy FL-labeled bradykinin 2 μM, pH 5.5, read-out: CATH-A IC50

SMILES: Cc1cccc([C@H](CC(=O)O)NC(=O)c2cc(O)n(-c3cccc(Cl)c3)n2)c1 [Example 258]
IC50 [2]: 0.1 to 1 µM

SMILES: CC(C)c1ccc(C(CC(=O)O)NC(=O)c2cc(O)n(-c3ccccc3)n2)cc1 (stereo not drawn) [Example 24]
IC50 [3]: 0.1 to 1 µM

SMILES: COc1ccc(C(CC(=O)O)NC(=O)c2cc(O)n(-c3ccccc3F)n2)c(OC)c1 (stereo not drawn) [Example 232]
IC50 [2]: 0.1 to 1 µM

SMILES: O=C(O)CC(NC(=O)c1cc(O)n(-c2ccc(F)cc2)n1)c1ccc(-c2cccc(F)c2)cc1 (stereo not drawn) [Example 356]
IC50 [3]: 0.1 to 1 µM

SMILES: COc1cc(C(=O)N[C@@H](CC(=O)O)c2ccc(Cl)cc2)nn1-c1ccccc1F [Example 671]
IC50 [1]: < 0.1 µM

SMILES: Cc1ccc(C(CC(=O)O)NC(=O)c2cc(O)n(-c3ccccc3F)n2)c(C)c1 (stereo not drawn) [Example 247]
IC50 [2]: 0.1 to 1 µM

SMILES: O=C(O)CC(NC(=O)c1cc(O)n(-c2ccccc2F)n1)c1ccc(Cl)c(Cl)c1 (stereo not drawn) [Example 407]
IC50 [4]: 0.1 to 1 µM

SMILES: CCc1ccc(C(CC(=O)O)NC(=O)c2cc(O)n(-c3ccccc3)n2)cc1 (stereo not drawn) [Example 22]
IC50 [3]: 0.1 to 1 µM

SMILES: COc1ccc(C(CC(=O)O)NC(=O)c2cc(O)n(-c3ccccc3)n2)c(Cl)c1 (stereo not drawn) [Example 162]
IC50 [2]: 0.1 to 1 µM

SMILES: Cc1cccc([C@H](CC(=O)O)NC(=O)c2cc(OC[C@H](O)C(C)(C)C)n(-c3ccccc3F)n2)c1 [Example 804, (S)-3-{[1-(2-Fluoro-phenyl)-5-((R)-2-hydroxy-3,3-dimethyl-butoxy)-1H-pyrazole-3-carbonyl]-amino}-3-m-tolyl-propionic acid]
IC50 [3]: < 0.1 µM

SMILES: O=C(O)C[C@H](NC(=O)c1cc(O)n(-c2ccccc2)n1)c1c(F)cccc1F [Example 103]
IC50 [3]: 0.1 to 1 µM

SMILES: O=C(O)C[C@H](NC(=O)c1cc(O)n(-c2ccccc2Cl)n1)c1ccc(F)cc1 [Example 211]
IC50 [2]: 0.1 to 1 µM

SMILES: COc1cc(C(=O)NC(CC(=O)O)c2ccc(-c3ccccn3)cc2)nn1-c1ccccc1F (stereo not drawn) [Example 598]
IC50 [1]: < 0.1 µM

SMILES: O=C(O)CC(NC(=O)c1cc(O)n(-c2cccc(F)c2)n1)c1ccc(Oc2ccccc2)cc1 (stereo not drawn) [Example 330]
IC50 [3]: 0.1 to 1 µM

SMILES: O=C(O)CC(NC(=O)c1cc(O)n(-c2ccc(Cl)cc2)n1)c1ccc(-c2ccc(F)cc2)cc1 (stereo not drawn) [Example 425]
IC50 [4]: 1 to 30 µM

SMILES: O=C(O)C[C@H](NC(=O)c1cc(O)n(-c2ccccc2)n1)c1ccc(Cl)cc1 [Example 98]
IC50 [3]: 0.1 to 1 µM

SMILES: CC(C)(C)[C@H](O)COc1cc(C(=O)N[C@@H](CC(=O)O)c2ccc(Cl)cc2)nn1-c1ccccc1F [Example 794, (S)-3-(4-Chloro-phenyl)-3-{[1-(2-fluoro-phenyl)-5-((S)-2-hydroxy-3,3-dimethyl-butoxy)-1H-pyrazole-3-carbonyl]-amino}-propionic acid]
IC50 [3]: < 0.1 µM

SMILES: N#Cc1ccc([C@H](CC(=O)O)NC(=O)c2cc(O)n(-c3ccccc3)n2)cc1 [Example 101]
IC50 [3]: 0.1 to 1 µM

SMILES: O=C(O)CC(NC(=O)c1cc(O)n(-c2ccccc2Cl)n1)c1ccc(-n2cncn2)cc1 (stereo not drawn) [Example 557, 3-{[1-(2-Chloro-phenyl)-5-hydroxy-1H-pyrazole-3-carbonyl]-amino}-3-(4-[1,2,4]triazol-1-yl-phenyl)-propionic acid]
IC50 [1]: 0.1 to 1 µM
IC50 [5]: 0.839 µM

SMILES: O=C(O)C[C@H](NC(=O)c1cc(O)n(-c2ccccc2F)n1)c1ccccc1F [Example 118]
IC50 [3]: 0.1 to 1 µM

SMILES: N#Cc1ccc([C@H](CC(=O)O)NC(=O)c2cc(O)n(-c3ccc(F)cc3)n2)cc1 [Example 341]
IC50 [3]: 0.1 to 1 µM

SMILES: Cc1ccc([C@H](CC(=O)O)NC(=O)c2cc(OC[C@H](O)C(C)(C)C)n(-c3ccccc3F)n2)cc1 [Example 788, (S)-3-{[1-(2-Fluoro-phenyl)-5-((R)-2-hydroxy-3,3-dimethyl-butoxy)-1H-pyrazole-3-carbonyl]-amino}-3-p-tolyl-propionic acid]
IC50 [1]: < 0.1 µM

SMILES: COc1c(C)c(C(=O)NC(CC(=O)O)c2ccccc2C)nn1-c1ccccc1F (stereo not drawn) [Example 605]
IC50 [1]: 1 to 30 µM

SMILES: O=C(O)CC(NC(=O)c1cc(O)n(-c2ccc(Cl)cc2)n1)c1cccc(Cl)c1F (stereo not drawn) [Example 288]
IC50 [3]: 1 to 30 µM

Now from value to compound:

IC50 [1]: < 0.1 µM
SMILES: Cc1ccccc1[C@H](CC(=O)O)NC(=O)c1cc(OC[C@@](C)(O)C2CC2)n(-c2ccccc2F)n1 (single isomer, unassigned) [Example 764]

IC50 [2]: 1 to 30 µM
SMILES: O=C(O)C[C@H](NC(=O)c1cc(O)n(-c2ccccc2Cl)n1)c1ccc(-c2ccc(F)cc2)cc1 [Example 148]

IC50 [4]: 1 to 30 µM
SMILES: COc1ccc([C@H](CC(=O)O)NC(=O)c2cc(O)n(-c3cccc(F)c3)n2)cc1 [Example 427]

IC50 [1]: < 0.1 µM
SMILES: Cc1ccccc1[C@H](CC(=O)O)NC(=O)c1cc(O)n(-c2cc(F)ccc2F)n1 [Example 599]

IC50 [1]: 1 to 30 µM
SMILES: O=C(O)CC(NC(=O)c1cc(O)n(-c2cc(F)cc(F)c2)n1)c1ccc(-c2ccc(F)cc2)cc1 (stereo not drawn) [Example 587]

IC50 [4]: 1 to 30 µM
SMILES: CC[C@@H](C)NC(=O)C[C@H](NC(=O)c1cc(OC)n(-c2ccccc2F)n1)c1ccccc1C [Example 918, 1-(2-Fluoro-phenyl)-5-methoxy-1H-pyrazole-3-carboxylic acid [(S)-2-((R)-sec-butylcarbamoyl)-1-o-tolyl-ethyl]-amide]

IC50 [2]: 0.1 to 1 µM
SMILES: O=C(O)CC(NC(=O)c1cc(O)n(-c2ccccc2Cl)n1)c1cccc(C(F)(F)F)c1 (stereo not drawn) [Example 206]

IC50 [5]: 4.09 µM
IC50 [4]: 1 to 30 µM
SMILES: O=C(O)CC(NC(=O)c1cc(O)n(-c2ccc(Cl)cc2)n1)c1cc(F)ccc1F (stereo not drawn) [Example 472, 3-{[1-(4-Chloro-phenyl)-5-hydroxy-1H-pyrazole-3-carbonyl]-amino}-3-(2,5-difluoro-phenyl)-propionic acid]

IC50 [5]: 0.513 µM
IC50 [4]: 0.1 to 1 µM
SMILES: COc1cccc(F)c1C(CC(=O)O)NC(=O)c1cc(O)n(-c2ccccc2)n1 (stereo not drawn) [Example 441, 3-(2-Fluoro-6-methoxy-phenyl)-3-[(5-hydroxy-1-phenyl-1H-pyrazole-3-carbonyl)-amino]-propionic acid]

IC50 [1]: < 0.1 µM
SMILES: O=C(O)C[C@H](NC(=O)c1cc(OCC2CC2)n(-c2ccccc2F)n1)c1ccccc1Cl [Example 696]

IC50 [1]: < 0.1 µM
SMILES: Cc1ccccc1[C@H](CC(=O)O)NC(=O)c1cc(OCC2CCCO2)n(-c2ccccc2F)n1 (stereo partly drawn) [Example 642]

IC50 [5]: 0.167 µM
IC50 [4]: 0.1 to 1 µM
SMILES: O=C(O)CC(NC(=O)c1cc(O)n(-c2ccccc2)n1)c1cccc2c1OC(F)(F)O2 (stereo not drawn) [Example 496, 3-(2,2-Difluoro-benzo[1,3]dioxol-4-yl)-3-[(5-hydroxy-1-phenyl-1H-pyrazole-3-carbonyl)-amino]-propionic acid]

IC50 [2]: 1 to 30 µM
SMILES: O=C(O)CC(NC(=O)c1cc(O)n(-c2ccncc2)n1)c1ccc(-c2ccccc2)cc1 (stereo not drawn) [Example 151]

IC50 [1]: < 0.1 µM
IC50 [5]: 0.0174 µM
SMILES: CC(C)(C)[C@@](C)(O)COc1cc(C(=O)N[C@@H](CC(=O)O)c2ccccc2Cl)nn1-c1ccccc1F (single isomer, unassigned) [Example 758]

IC50 [1]: < 0.1 µM
SMILES: COc1cc(C(=O)N[C@@H](CC(=O)O)c2ccccc2Cl)nn1-c1ccccc1F [Example 676]

IC50 [3]: 1 to 30 µM
SMILES: COc1ccccc1[C@H](CC(=O)O)NC(=O)c1cc(O)n(-c2ccc(Cl)cc2)n1 [Example 274]

IC50 [3]: 1 to 30 µM
SMILES: O=C(O)C[C@H](NC(=O)c1cc(O)n(-c2ccc(Cl)cc2)n1)c1ccccc1F [Example 293]

IC50 [3]: 0.1 to 1 µM
SMILES: COc1ccc(C(CC(=O)O)NC(=O)c2cc(O)n(-c3ccccc3)n2)cc1 (stereo not drawn) [Example 3, 3-[(5-Hydroxy-1-phenyl-1H-pyrazole-3-carbonyl)-amino]-3-(4-methoxy-phenyl)-propionic acid]

IC50 [3]: 1 to 30 µM
SMILES: Cc1ccc(C)c(-n2nc(C(=O)NC(CC(=O)O)c3ccc(F)cc3)cc2O)c1 (stereo not drawn) [Example 1]
